“Also recorded” adds a separate entry of the source. No end group written: not given here.
What was measured:
[1] = tested on: acute graft versus host disease following stem cell transplantation; assay: prophylactic oral hBD-2 in murine model of acute graft versus host disease following stem cell transplantation (Example 13); type: in vivo, BALB/c mice; details: for IL-1β from myeloid cells: CD11c+ dendritic cells and CD11b+ Ly6FG− cells; for infiltration with CD45+ leucocytes (FACS analysis): lamina propria of colon (FIG. 50: colon and small intestine); for intestinal T cell and myeloid cell infiltration: lamina propria of the colon (FIG. 51: colon and small intestine)
Experimental: To determine and assess the efficacy of prophylactic treatment with oral hBD-2 in a murine model of acute graft versus host disease following stem cell transplantation.
Treatment regime: 12 female BALB/c mice were irradiated with 4.5 Gy (2×498 sec) at intervals of at least 4 hours on day 0. Bone marrow was harvested: hind limbs harvested from 2 female WT C57BL/6 mice aseptically. Skeletal muscle was removed and epiphysis cut away. Lumen of bone flushed with PBS and cells pelleted and taken up. Harvest of T-cells: spleens from 2 female WT C57BL/6 mice were meshed through a 100 μM cell strainer into a PBS filled dish. Cells were taken up in PBS and transferred into a 50 mL falcon tube and spun down. Cells were taken up in 1 mL PBS and 20 μL of CD4 microbead+20 μL CD8 microbeads per spleen added for incubation for 20 min at 4 degrees C. Cells were washed with PBS and applied to MACS separation in order to positively select CD4+ and CD8+ cells. Positively selected T-cells were counted and taken up. Transplantation: directly after the second irradiation, all WT BALB/c recipient mice were injected with 5×1.000.000 BM cells (50 μL) i.v. into the retroorbital venous plexus under isoflurane anesthesia. 15 BALB/c mice were treated with 1.2 mg of hBD2/kg BW/day in 100 μL PBS per day vial oral gavage from day 0-10.
15 BALB/c mice received vehicle 100 μL PBS per day via oral gavage from day 0-10.
The mice were weighed daily for the initial 7 days and survival was monitored for 100 days.

[2] = tested on: house dust mite model of allergic asthma; assay: therapeutic intranasal versus oral hBD2 in murine house dust mite model of allergic asthma (Example 10); type: in vivo, BALB/c mice; details: hBD2, both dosing routes
[3] = tested on: microbiota in diet-induced obese mice; assay: interventional treatment of dysbiosis with defensins in diet-induced obese mice (Example 8); type: in vivo
Text: Mice and diets. The experiment elucidates the effect of hBD2 and HD5 on the microbiota in diet-induced obese mice. A run-in period of 13 weeks where mice were fed a very HFD (60% energy from fat) preceded the intervention. Only mice meeting the criteria of a minimum of 12 gram weight gain (approximately 50% of initial bodyweight) during the run-in period were included in the final analyses. […] They were exposed to all experimental tests, but excluded from the analyses.
Treatment regimen. Before the intervention all mice were MR scanned. Cages of mice were allocated to experimental groups based on their fat mass. All subsequent measures were paired with data from the same mouse before the intervention. A LFD (low fat diet) reference group was running in parallel. As controls for the intervention 2 additional groups were included: 1 very HFD and 1 LFD. Experimental mice stayed on the very HFD during the intervention (FIG. 3). The mice were on the experimental diet for 10 weeks. They were co-housed throughout the experiment, 4 mice per cage, 3 cages per group. All tests ran over 3 days, 1 cage per group per day.
Tests. Microbial analyses were carried out to study the microbiota of the intestine.
Longitudinal 16S characterization was conducted on 4 paired samples from 60 mice, 240 samples in total. Each mouse was sampled prior to diet change, 1 week post diet change, 4 weeks post diet change and at termination, thus ensuring a thorough characterization of the faecal microbiota as a result of defensin treatment.

[4] = tested on: house dust mite model of allergic asthma; assay: therapeutic intranasal versus oral hBD2 in murine house dust mite model of allergic asthma (Example 10); type: in vivo, BALB/c mice
Experimental: To determine and assess the efficacy of IN versus oral therapeutic intervention with defensins in a murine house dust mite model of allergic asthma.
Treatment regime: Female 7-10 weeks old BALB/c mice were randomly allocated into 7 study groups one day prior to study start and subcutaneously (SC) sensitized to house dust mite (100 μg HDM in 200 μL saline plus Freund's complete adjuvant in 0.9% saline). Mice were then intranasally (IN) challenged with HDM on day 14 (HDM 25 μg in 50 μL of saline). Dexamethasone was administered orally (1 mg/kg BID; 50 μL phosphate buffered saline (PBS)) on day 14. hBD2 was administered IN or orally (1.7 mg/kg TID IN; 0.4 mg/kg TID IN; 0.4 mg/kg TID orally, 50 μL phosphate buffered saline) on day 14. The initial dose was administered 60 minutes prior to challenge, and the subsequent doses approximately 6 hours apart (FIG. 5).
Airway inflammation: At 48 hours post challenge, bronchoalveolar lavage was performed washing the lungs with 3 volumes of cold PBS (0.4; 0.3 and 0.3 mL, total 1 mL). Total and differential leucocyte cell counts were determined on an automated haematological analyser Sysmex XT-2000iV.
Data are represented as airway resistance at […] methacholine and as dose responsive curves.
Lung sampling for cytokine analysis: After completion of every BAL, lungs were removed from the thorax, snap frozen in liquid nitrogen and stored frozen at −80 degrees Celsius until analysis of cytokine concentration of IL-1β, TNF-α, IL-6, IL-10 and IFNγ by ELISA.

[5] = oral hBD2 1.2 mg/kg/day day 0-10, 15 mice
[6] = oral hBD-2 for 10 days versus PBS
[7] = dexamethasone 1 mg/kg BID oral, hBD2 both IN doses (0.4 mg/kg/day TID and 1.7 mg/kg/day TID)
[8] = hBD2 both oral and intranasal TID on day 14, versus HDM challenged vehicle

With “human beta defensin 2 (GIGDPVTCLKSGAICHPVFCPRRYKQIGTCGLPGTKCCKKP; not fully specified (bridges); ends and bridges not checked; listed as Homo sapiens) [hBD2]” as the substance, how does the “Th1 cytokine production (TNF-α and IFN-γ in CD4 and CD8 T cells)” value ([1]; FACS analysis of the spleen) read?
Its value is “reduced Th 1 cytokine production; also recorded: reduced Th1 cytokine production”.

What about the neutrophils ([1]; FACS analysis of the spleen) of the same substance?
Its neutrophils is “Reduced proportion of neutrophils; also recorded: reduced number of neutrophils”.

And the “IL-1β from myeloid cells” value ([1]; FACS analysis of the spleen)?
Its value is “decrease the production of IL-1β”.

And the “IL-1β from myeloid cells” value ([1]; FACS analysis of the spleen, listed as hBD-2)?
Its value is “reduction of IL-1β from myeloid cells; also recorded: Reduced IL-1β production”.

And the weight loss ([1]; first 7 days following bone marrow transplantation)?
Its weight loss is “lost statistically significantly less weight”.

What about the “survival (Kaplan-Meyer plot)” value ([1]; hBD2 1.2 mg/kg/day day 0 to day 10 versus vehicle, n=15) of the same substance?
Its value is “dramatically increased survival”.

What about the “microarray analysis of colon samples” value ([1]; hBD-2 treated group versus PBS) of the same substance?
Its value is “decreased inflammation, leucocyte and myeloid cell migration and tissue remodelling”.

And the “infiltration with CD45+ leucocytes (FACS analysis)” value [1]?
Its value is “reduced the infiltration”.

And the “infiltration with CD45+ leucocytes (FACS analysis)” value ([1]; listed as hBD-2)?
The value was “Reduced CD45+ leucocyte cell migration”.

And the “intestinal T cell and myeloid cell infiltration” value [1]?
Its value is “reduced”.

And the “intestinal T cell and myeloid cell infiltration” value ([1]; listed as hBD-2)?
Its value is “Reduction of intestinal T cell and myeloid cell infiltration”.

What about the “mice still alive by day 100” value [1, 5] of the same substance?
Its value is 8 mice.

And the “share of treated mice that had died by day 35” value [1, 5]?
The value was “less than 30%”.

And the “treated mice that had died by day 35” value ([1]; oral hBD2 1.2 mg/kg/day day 0-10, 15 mice, all 15 vehicle mice had died by day 35)?
Its value is 4.

What about the “histology score of the colon” value [1, 6] of the same substance?
Its value is “highly statistically lower; also recorded: statistically significant reduction of histology score”.

What about the “histology score of the liver” value [1, 6] of the same substance?
Its value is “highly statistically lower; also recorded: statistically significant reduction of histology score”.

What about the “histology score of the small intestine” value [1, 6] of the same substance?
The value was “highly statistically lower; also recorded: statistically significant reduction of histology score”.

What about the TNF-α concentration ([1]; serum (FIG. 52a)) of the same substance?
The TNF-α concentration was “reduction”.

And the IL-6 concentration ([1]; serum (FIG. 52b))?
Its IL-6 concentration is “reduction”.

What about the IL-10 concentration ([1]; serum (FIG. 52c)) of the same substance?
The IL-10 concentration was “increased concentration of IL-10”.

And the “IL-4 level in lung tissue homogenates” value [2]?
The value was “significant effects”.

What about the “IL-5 level in lung tissue homogenates” value [2] of the same substance?
Its value is “significant effects”.

And the weight gain ([3]; HFD plus hBD2, first 4 weeks post dietary intervention, versus standard HFD)?
The weight gain was “tended to gain less weight”.

And the weight gain ([3]; HFD plus hBD2, week 4 to end of study period)?
Its weight gain is “gained similar weight as the standard HFD group”.

What about the “abundance of Alloprevotella” value ([3]; colon) of the same substance?
Its value is “no influence on Alloprevotella abundance”.

And the “relative abundance of Bifidobacteriaceae” value ([3]; colon)?
The value was “dramatically and statistically significant increased”.

What about the “relative abundance of Bifidobacteriaceae” value ([3]; small intestine) of the same substance?
Its value is “dramatically and statistically significant increased”.

And the “eosinophil counts in BALF” value [4, 7]?
The value was “trend towards lowering of eosinophils”.

What about the “macrophage counts in BALF” value [4, 7] of the same substance?
The value was “significantly inhibited”.

What about the “neutrophil counts in BALF” value [4, 7] of the same substance?
Its value is “significantly inhibited”.

And the “total cell counts in BALF” value [4, 7]?
The value was “significantly inhibited”.

What about the “IL-6 level in lung tissue homogenates” value ([4]; hBD2, both dosing routes) of the same substance?
Its value is “significant effects”.

And the “IL-10 level in lung tissue homogenates” value ([4]; hBD2, both dosing routes)?
The value was “significant effects”.

What about the airway resistance [4, 8] of the same substance?
Its airway resistance is “effectively inhibited increase of airway resistance”.

What about the pulmonary compliance [4, 8] of the same substance?
Its pulmonary compliance is “effectively inhibited”.

What about the “TNF-α level in lung tissue homogenates” value ([4]; intranasally administered hBD2) of the same substance?
The value was “differed from the control but not significantly”.

What about the “TNF-α level in lung tissue homogenates” value ([4]; perorally administered hBD2) of the same substance?
The value was “significantly reduced TNF-α”.

— patent US20200291082A1, “PREVENTION AND TREATMENT OF GRAFT-VERSUS-HOST-DISEASE WITH DEFENSINS” (priority 2017, published 2020)
